Reference: US9376425B2, “Heterocyclic compounds as MDM2 inhibitors for the treatment of cancer” (AMGEN INC., priority 2011, dated 2016)

Target: T1, human MDM2 (GST-hMDM2 1-188), interaction with biotinylated-p53 (1-83) (Homo sapiens, UniProt Q00987)
T1 construct: Amino acid residues 1-188 of human MDM2 were expressed; made in house; host or cells: Escherichia coli
Experiment: improved HTRF assay (HTRF2 assay), inhibition of HDM2-p53 interaction
Type: binding
Conditions: 0.2 nM GST-hMDM2, 0.5 nM biotinylated-p53, 100 mM KF
In short: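 Time-resolved fluorescence (HTRF) read after >4 h equilibration with SA-XLent/anti-GST cryptate/KF detection reagents. Reaction: compound plus GST-hMDM2 for 20 min at room temperature, then E. coli-expressed biotinylated p53 residues 1-83 for 60 min, 2% DMSO final. Inhibition expressed versus nutlin-3.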

T1 sequence (Q00987 1-188): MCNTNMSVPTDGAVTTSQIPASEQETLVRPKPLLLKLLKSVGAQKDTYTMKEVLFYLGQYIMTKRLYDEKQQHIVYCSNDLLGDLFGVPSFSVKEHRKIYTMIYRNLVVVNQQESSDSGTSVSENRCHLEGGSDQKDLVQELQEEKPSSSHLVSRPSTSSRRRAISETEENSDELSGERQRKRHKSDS

Row | Compound | IC50
1 | CC1(C)CCCN1S(=O)(=O)C[C@H](C1CC1)N1C(=O)[C@@H](CC(=O)O)O[C@H](c2cccc(Cl)c2)[C@H]1c1ccc(Cl)cc1 (single isomer, unassigned) [Example 307, 2-((2R,5R,6R)-6-(3-Chlorophenyl)-5-(4-chlorophenyl)-4-((S)-1-cyclopropyl-2-((2,2-dimethylpyrrolidin-1-yl)sulfonyl)ethyl)-3-oxomorpholin-2-yl)acetic acid or 2-((2R,5R,6R)-6-(3-chlorophenyl)-5-(4-chlorophenyl)-4-((S)-1-cyclopropyl-2-((2,2-dimethylpyrrolidin-1-yl)sulfonyl)ethyl)-3-oxomorpholin-2-yl)acetic acid] | < 1 nM
2 | CC(C)(C)S(=O)(=O)C[C@H](C1CC1)N1C(=O)[C@@H](CC(=O)O)O[C@H](c2cccc(Cl)c2)[C@H]1c1ccc(Cl)c(F)c1 (single isomer, unassigned) [Example 308, 2-((2R,5R,6R)-4-((S)-2-(tert-Butylsulfonyl)-1-cyclopropylethyl)-5-(4-chloro-3-fluorophenyl)-6-(3-chlorophenyl)-3-oxomorpholin-2-yl)acetic acid or 2-((2S,5R,6R)-4-((S)-2-(tert-butylsulfonyl)-1-cyclopropylethyl)-5-(4-chloro-3-fluorophenyl)-6-(3-chlorophenyl)-3-oxomorpholin-2-yl)acetic acid] | < 1 nM
3 | CC(C)(C)S(=O)(=O)C[C@H](C1CC1)N1C(=O)[C@@H](CC(=O)O)O[C@H](c2cccc(Cl)c2)[C@H]1c1ccc(Cl)c(F)c1 (single isomer, unassigned) [Example 309, 2-((2R,5R,6R)-4-((S)-2-(tert-Butylsulfonyl)-1-cyclopropylethyl)-5-(4-chloro-3-fluorophenyl)-6-(3-chlorophenyl)-3-oxomorpholin-2-yl)acetic acid or 2-((2S,5R,6R)-4-((S)-2-(tert-butylsulfonyl)-1-cyclopropylethyl)-5-(4-chloro-3-fluorophenyl)-6-(3-chlorophenyl)-3-oxomorpholin-2-yl)acetic acid] | 1 nM
4 | CC(C)[C@@H](CS(=O)(=O)C(C)(C)C)N1C(=O)[C@@H](CC(=O)O)O[C@H](c2cccc(Cl)c2)[C@H]1c1ccc(Cl)c(F)c1 (single isomer, unassigned) [Example 310] | 1 nM
5 | CC(C)[C@@H](CS(=O)(=O)C(C)(C)C)N1C(=O)[C@@H](CC(=O)O)O[C@H](c2cccc(Cl)c2)[C@H]1c1ccc(Cl)c(F)c1 (single isomer, unassigned) [Example 311] | 5 nM
6 | CC(C)[C@@H](CS(=O)(=O)C(C)(C)C)N1C(=O)[C@@H](CC(=O)O)O[C@H](c2cccc(Cl)c2)[C@H]1c1ccc(Cl)c(F)c1 (single isomer, unassigned) [Example 312] | 279 nM
7 | CC(C)[C@@H](CS(=O)(=O)C(C)(C)C)N1C(=O)[C@@H](CC(=O)O)O[C@H](c2cccc(Cl)c2)[C@H]1c1ccc(Cl)c(F)c1 (single isomer, unassigned) [Example 313] | 38 nM
8 | O=C(O)C[C@H]1O[C@H](c2cccc(Cl)c2)[C@@H](c2ccc(Cl)c(F)c2)N([C@H](CN(c2ccccc2F)S(=O)(=O)C2CC2)C2CC2)C1=O (single isomer, unassigned) [Example 314, 2-((2R,5R,6R)-5-(4-Chloro-3-fluorophenyl)-6-(3-chlorophenyl)-4-((S)-1-cyclopropyl-2-(N-(2-fluorophenyl)cyclopropanesulfonamido)ethyl)-3-oxomorpholin-2-yl)acetic acid or 2-((2S,5R,6R)-5-(4-chloro-3-fluorophenyl)-6-(3-chlorophenyl)-4-((S)-1-cyclopropyl-2-(N-(2-fluorophenyl)cyclopropanesulfonamido)ethyl)-3-oxomorpholin-2-yl)acetic acid] | < 1 nM
9 | O=C(O)C[C@H]1O[C@H](c2cccc(Cl)c2)[C@@H](c2ccc(Cl)c(F)c2)N([C@H](CN(c2ccccc2F)S(=O)(=O)C2CC2)C2CC2)C1=O (single isomer, unassigned) [Example 315, 2-((2R,5R,6R)-5-(4-Chloro-3-fluorophenyl)-6-(3-chlorophenyl)-4-((S)-1-cyclopropyl-2-(N-(2-fluorophenyl)cyclopropanesulfonamido)ethyl)-3-oxomorpholin-2-yl)acetic acid or 2-((2S,5R,6R)-5-(4-chloro-3-fluorophenyl)-6-(3-chlorophenyl)-4-((S)-1-cyclopropyl-2-(N-(2-fluorophenyl)cyclopropanesulfonamido)ethyl)-3-oxomorpholin-2-yl)acetic acid] | < 1 nM
10 | CC[C@@H](CS(=O)(=O)C(C)(C)C)N1C(=O)[C@@H](CC(=O)O)O[C@H](c2cccc(Cl)c2)[C@H]1c1ccc(Cl)cc1F (single isomer, unassigned) [Example 316, 2-((2R,5R,6R)-4-((S)-1-(tert-Butylsulfonyl)butan-2-yl)-5-(4-chloro-2-fluorophenyl)-6-(3-chlorophenyl)-3-oxomorpholin-2-yl)acetic acid or 2-((2S,5R,6R)-4-((S)-1-(tert-butylsulfonyl)butan-2-yl)-5-(4-chloro-2-fluorophenyl)-6-(3-chlorophenyl)-3-oxomorpholin-2-yl)acetic acid] | 2 nM
11 | CC[C@@H](CS(=O)(=O)C(C)(C)C)N1C(=O)[C@@H](CC(=O)O)O[C@H](c2cccc(Cl)c2)[C@H]1c1ccc(Cl)cc1F (single isomer, unassigned) [Example 317, 2-((2R,5R,6R)-4-((S)-1-(tert-Butylsulfonyl)butan-2-yl)-5-(4-chloro-2-fluorophenyl)-6-(3-chlorophenyl)-3-oxomorpholin-2-yl)acetic acid or 2-((2S,5R,6R)-4-((S)-1-(tert-butylsulfonyl)butan-2-yl)-5-(4-chloro-2-fluorophenyl)-6-(3-chlorophenyl)-3-oxomorpholin-2-yl)acetic acid] | 3 nM
12 | CC(C)(C)S(=O)(=O)C[C@H](C1CC1)N1C(=O)[C@@H](CC(=O)O)O[C@H](c2ccc(Cl)c(Cl)c2)[C@H]1c1ccc(Cl)cc1 (single isomer, unassigned) [Example 318, 2-((2R,5R,6R)-4-((S)-2-(tert-Butylsulfonyl)-1-cyclopropylethyl)-5-(4-chlorophenyl)-6-(3,4-dichlorophenyl)-3-oxomorpholin-2-yl)acetic acid or 2-((2S,5R,6R)-4-((S)-2-(tert-butylsulfonyl)-1-cyclopropylethyl)-5-(4-chlorophenyl)-6-(3,4-dichlorophenyl)-3-oxomorpholin-2-yl)acetic acid] | 8 nM
13 | CC(C)(C)S(=O)(=O)C[C@H](C1CC1)N1C(=O)[C@@H](CC(=O)O)O[C@H](c2ccc(Cl)c(Cl)c2)[C@H]1c1ccc(Cl)cc1 (single isomer, unassigned) [Example 319, 2-((2R,5R,6R)-4-((S)-2-(tert-Butylsulfonyl)-1-cyclopropylethyl)-5-(4-chlorophenyl)-6-(3,4-dichlorophenyl)-3-oxomorpholin-2-yl)acetic acid or 2-((2S,5R,6R)-4-((S)-2-(tert-butylsulfonyl)-1-cyclopropylethyl)-5-(4-chlorophenyl)-6-(3,4-dichlorophenyl)-3-oxomorpholin-2-yl)acetic acid] | 113 nM
